*1 amine or outer side, *2 acyl side, *3 side chain or, on linkers, in order; H or OH if unused. Where a SMILES comes first, the peptide text is derived from it. Bridges are numbered along the chain shown (N, C = ends). [ ]: non-standard residue; d: D form. hAad = O=C([C@H](CCCCC(=O)[*:3])N[*:1])[*:2]; 2Nal = N[C@@H](Cc1ccc2ccccc2c1)C(=O)O; AEF = NCCOc1ccc(C[C@H](N)C(=O)O)cc1; 3Pal = N[C@@H](Cc1cccnc1)C(=O)O; αMeL = CC(C)C[C@](C)(N)C(=O)O; dOrn = NCCC[C@@H](N)C(=O)O; dDab = NCC[C@@H](N)C(=O)O; Dab = NCC[C@H](N)C(=O)O; βAla = NCCC(=O)O
Target: T1, human IL-23R (Homo sapiens, UniProt Q5VWK5)
T1 sequence (Q5VWK5 22-629): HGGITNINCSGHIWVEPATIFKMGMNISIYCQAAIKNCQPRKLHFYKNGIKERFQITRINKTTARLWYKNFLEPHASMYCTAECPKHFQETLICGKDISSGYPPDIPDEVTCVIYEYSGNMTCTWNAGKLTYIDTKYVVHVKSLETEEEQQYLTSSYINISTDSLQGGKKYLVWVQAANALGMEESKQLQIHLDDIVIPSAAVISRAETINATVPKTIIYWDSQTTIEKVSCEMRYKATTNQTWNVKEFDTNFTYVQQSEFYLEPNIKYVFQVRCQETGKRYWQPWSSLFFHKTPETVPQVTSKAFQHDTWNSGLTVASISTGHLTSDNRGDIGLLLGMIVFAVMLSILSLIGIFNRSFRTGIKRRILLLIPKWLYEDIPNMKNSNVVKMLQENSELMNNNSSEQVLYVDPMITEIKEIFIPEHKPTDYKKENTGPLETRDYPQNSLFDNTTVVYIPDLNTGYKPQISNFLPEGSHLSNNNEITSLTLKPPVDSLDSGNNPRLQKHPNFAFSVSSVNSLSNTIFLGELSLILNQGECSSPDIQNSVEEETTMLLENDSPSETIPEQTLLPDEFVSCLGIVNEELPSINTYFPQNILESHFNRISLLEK
Assay: biochemical
Conditions: for Emax: read-out: % displacement (hIL-23R NIuc)
Summary of the method: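 BRET displacement of a TAMRA-labelled reference compound from N-terminal Nanoluc-IL-23R fusion protein in membranes from stably transfected HEK293 cells. Incubation 2 h at room temperature, then Nanoluc substrate was added and the TAMRA/Nanoluc ratio read. IC50 and maximal displacement came from 4-parameter logistic fits.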

| SMILES | IC50 [pM] | Emax [%] | % displacement (hIL-23R NIuc) [%] |
| --- | --- | --- | --- |
| COc1ccc(C[C@@H]2NC(=O)[C@@H]3CCC(=O)N[C@@H](CCCCNC(=O)CC[C@@H](C(=O)N[C@@H](CCCCNC(=O)Cc4cccnc4)C(N)=O)NC(=O)[C@](C)(CC(C)C)NC(=O)[C@H](Cc4ccc5ccccc5c4)NC2=O)C(=O)N[C@@H]([C@@H](C)O)C(=O)N[C@@H](C(C)C)C(=O)N[C@@H](Cc2c[nH]c4ccccc24)C(=O)N[C@@H](CCC(N)=O)C(=O)N3)cc1 [Compound 51, K(1c)(6c)^†TVWQE(6c)[Y(Me)][2-Nal][2-Me-Leu]E(1c)[K(3-pyridylacetyl)]-[NH2]] | 300000 | 102 | – |
| CNC(=O)[C@H](Cc1cccnc1)NC(=O)[C@H](Cc1ccccn1)NC(=O)[C@@H]1CCC(=O)NCCCC[C@@H]2NC(=O)CC[C@H](NC(=O)[C@H](CCC(N)=O)NC(=O)[C@H](Cc3c[nH]c4ccccc34)NC(=O)CCNC2=O)C(=O)N[C@@H](Cc2ccc(OCCN)cc2)C(=O)N[C@@H](Cc2ccc3ccccc3c2)C(=O)N[C@@](C)(CC(C)C)C(=O)N1 [Compound 88, K(1c)(6c)^†[3-Aminopropanoyl]WQE(6c)[Y(2-aminoethoxy)][2-Nal][2-Me-Leu]E(1 c)[3-(2-Pyridyl)-Ala][3-(3-Pyridyl)-Ala]-[NHMe]] | 52 | 100 | – |
| CC(C)C[C@]1(C)NC(=O)[C@H](Cc2ccc3ccccc3c2)NC(=O)[C@H](Cc2ccc(OCCN)cc2)NC(=O)[C@@H]2CC(=O)N[C@H](CCNC(=O)CCCC[C@@H](C(=O)N[C@@H](CCN)C(=O)N[C@@H](Cc3cccnc3)C(N)=O)NC1=O)C(=O)N[C@@H]([C@@H](C)O)C(=O)N[C@@H](C(C)C)C(=O)N[C@@H](Cc1c[nH]c3ccccc13)C(=O)N[C@@H](CCC(N)=O)C(=O)N2 [Compound 9, [{d}Dab](1c)(6c)^†TVWQD(6c)[Y(2-aminoethoxy)][2-Nal][2-Me-Leu][2-Amino-6-carboxyhexanoyl](1 c)[Dab][3-(3-Pyridyl)-Ala]-[NH2]] ([dDab]TVWQD[AEF][2Nal][αMeL][hAad][Dab][3Pal]-NH2; lactam 1-10, N-6) | 520 | – | 103 |
| COc1ccc(C[C@@H]2NC(=O)[C@@H]3CCC(=O)N[C@@H](CCCCNC(=O)CC[C@@H](C(=O)N[C@@H](CCCCNC(=O)c4ccncc4)C(N)=O)NC(=O)[C@](C)(CC(C)C)NC(=O)[C@H](Cc4ccc5ccccc5c4)NC2=O)C(=O)N[C@@H]([C@@H](C)O)C(=O)N[C@@H](C(C)C)C(=O)N[C@@H](Cc2c[nH]c4ccccc24)C(=O)N[C@@H](CCC(N)=O)C(=O)N3)cc1 [Compound 53, K(1c)(6c)^†TVWQE(6c)[Y(Me)][2-Nal][2-Me-Leu]E(1c)[K(isonicotinyl)]-[NH2]] | 420000 | 95 | – |
| CNC(=O)[C@H](Cc1cccnc1)NC(=O)[C@H](CCN)NC(=O)[C@@H]1CCC(=O)NCC[C@@H]2NC(=O)CC[C@H](NC(=O)[C@H](CCC(N)=O)NC(=O)[C@H](Cc3c[nH]c4ccccc34)NC(=O)[C@H]([C@@H](C)O)NC2=O)C(=O)N[C@@H](Cc2ccc(OCCN)cc2)C(=O)N[C@@H](Cc2ccc3ccccc3c2)C(=O)N[C@@](C)(CC(C)C)C(=O)N1 [Compound 37, [Dab](1c)(6c)^†TWQE(6c)[Y(2-aminoethoxy)][2-Nal][2-Me-Leu]E(1c)[Dab][3-(3-Pyridyl)-Ala]-[NHMe]] | 1400 | 99 | – |
| CC(C)C[C@]1(C)NC(=O)[C@H](Cc2ccc3ccccc3c2)NC(=O)[C@H](Cc2ccc(OCCN)cc2)NC(=O)[C@@H]2CC(=O)N[C@H](CCCNC(=O)CC[C@@H](C(=O)N[C@@H](CCN)C(=O)N[C@@H](Cc3cccnc3)C(N)=O)NC1=O)C(=O)N[C@@H]([C@@H](C)O)C(=O)N[C@@H](C(C)C)C(=O)N[C@@H](Cc1c[nH]c3ccccc13)C(=O)N[C@@H](CCC(N)=O)C(=O)N2 [Compound 10, [{d}Orn](1c)(6c)^†TVWQD(6c)[Y(2-aminoethoxy)][2-Nal][2-Me-Leu]E(1c)[Dab][3-(3-Pyridyl)-Ala]-[NH2]] ([dOrn]TVWQD[AEF][2Nal][αMeL]E[Dab][3Pal]-NH2; lactam 1-10, N-6) | 670 | 107 | – |
| CNC(=O)[C@H](Cc1cccnc1)NC(=O)[C@H](CCN)NC(=O)[C@@H]1CCCNC(=O)CC[C@@H]2NC(=O)CC[C@H](NC(=O)[C@H](CCC(N)=O)NC(=O)[C@H](Cc3c[nH]c4ccccc34)NC(=O)[C@H]([C@@H](C)O)NC2=O)C(=O)N[C@@H](Cc2ccc(OCCN)cc2)C(=O)N[C@@H](Cc2ccc3ccccc3c2)C(=O)N[C@@](C)(CC(C)C)C(=O)N1 [Compound 40, E(1c)(6c)^†TWQE(6c)[Y(2-aminoethoxy)][2-Nal][2-Me-Leu][Orn](1c)[Dab][3-(3-Pyridyl)-Ala]-[NHMe]] | – | 100 | – |
| CNC(=O)[C@H](Cc1cccnc1)NC(=O)[C@H](CCN)NC(=O)[C@@H]1CCC(=O)NCCCC[C@H]2CC(=O)N[C@@H](Cc3c[nH]c4ccccc34)C(=O)N[C@@H](CCC(N)=O)C(=O)N[C@@H](CCC(=O)N2)C(=O)N[C@@H](Cc2ccc(OCCN)cc2)C(=O)N[C@@H](Cc2ccc3ccccc3c2)C(=O)N[C@@](C)(CC(C)C)C(=O)N1 [Compound 101, [beta-hLys](1c)(6c)^†WQE(6c)[Y(2-aminoethoxy)][2-Nal][2-Me-Leu]E(1c)[Dab][3-(3-Pyridyl)-Ala]-[NHMe]] | 30000 | 103 | – |
| CNC(=O)[C@H](Cc1cccnc1)NC(=O)[C@H](CCN)NC(=O)[C@@H]1CCC(=O)NCCCC[C@@H]2NC(=O)CCC[C@H](NC(=O)[C@H](CCC(N)=O)NC(=O)[C@H](Cc3c[nH]c4ccccc34)NC(=O)[C@H]([C@@H](C)O)NC2=O)C(=O)N[C@@H](Cc2ccc(OCCN)cc2)C(=O)N[C@@H](Cc2ccc3ccccc3c2)C(=O)N[C@@](C)(CC(C)C)C(=O)N1 [Compound 38, K(1c)(6c)^†TWQ[hGlu](6c)[Y(2-aminoethoxy)][2-Nal][2-Me-Leu]E(1c)[Dab][3-(3-Pyridyl)-Ala]-[NHMe]] | 1500 | 101 | – |
| COc1ccc(C[C@@H]2NC(=O)[C@@H]3CCC(=O)N[C@@H](CCCCNC(=O)CC[C@@H](C(=O)N[C@@H](CCCCNC(=O)CCc4ccccn4)C(N)=O)NC(=O)[C@](C)(CC(C)C)NC(=O)[C@H](Cc4ccc5ccccc5c4)NC2=O)C(=O)N[C@@H]([C@@H](C)O)C(=O)N[C@@H](C(C)C)C(=O)N[C@@H](Cc2c[nH]c4ccccc24)C(=O)N[C@@H](CCC(N)=O)C(=O)N3)cc1 [Compound 49, K(1c)(6c)^†TVWQE(6c)[Y(Me)][2-Nal][2-Me-Leu]E(1c)[K(2-pyridylpropionyl)]-[NH2]] | 820000 | 96 | – |
| CC(C)C[C@]1(C)NC(=O)[C@H](Cc2ccc3ccccc3c2)NC(=O)[C@H](Cc2ccc(OCCN)cc2)NC(=O)[C@@H]2CC(=O)N[C@H](CCNC(=O)CC[C@@H](C(=O)N[C@@H](CCN)C(=O)N[C@@H](Cc3cccnc3)C(N)=O)NC1=O)C(=O)N[C@@H]([C@@H](C)O)C(=O)N[C@@H](C(C)C)C(=O)N[C@@H](Cc1c[nH]c3ccccc13)C(=O)N[C@@H](CCC(N)=O)C(=O)N2 [Compound 11, [{d}Dab](1c)(6c)^†TVWQD(6c)[Y(2-aminoethoxy)][2-Nal][2-Me-Leu]E(1c)[Dab][3-(3-Pyridyl)-Ala]-[NH2]] ([dDab]TVWQD[AEF][2Nal][αMeL]E[Dab][3Pal]-NH2; lactam 1-10, N-6) | 370 | 104 | – |
| CC[C@H](C)[C@@H]1NC(=O)[C@@H]2CCCCNC(=O)CC[C@@H](C(=O)N[C@@H](CCN)C(=O)N[C@@H](Cc3cccnc3)C(=O)NC)NC(=O)[C@](C)(CC(C)C)NC(=O)[C@H](Cc3ccc4ccccc4c3)NC(=O)[C@H](Cc3ccc(OCc4ccccc4)cc3)NC(=O)[C@H](CCC(=O)N2)NC(=O)[C@H](CCC(N)=O)NC(=O)[C@H](Cc2c[nH]c3ccccc23)NC(=O)[C@H](C(C)C)NC1=O [Compound 34, K(1c)(6c)^†IVWQE(6c)[Y(Bn)][2-Nal][2-Me-Leu]E(1c)[Dab][3-(3-Pyridyl)-Ala]-[NHMe]] | 620 | 100 | – |
| CCCCc1ccc(C[C@@H]2NC(=O)[C@@H]3CCC(=O)N[C@@H](CCCCNC(=O)CC[C@@H](C(=O)N[C@@H](CCN)C(=O)N[C@@H](Cc4cccnc4)C(=O)NC)NC(=O)[C@](C)(CC(C)C)NC(=O)[C@H](Cc4ccc5ccccc5c4)NC2=O)C(=O)N[C@@H]([C@@H](C)CC)C(=O)N[C@@H](C(C)C)C(=O)N[C@@H](Cc2c[nH]c4ccccc24)C(=O)N[C@@H](CCC(N)=O)C(=O)N3)cc1 [Compound 33, K(1c)(6c)^†IVWQE(6c)[F(4-Bu)][2-Nal][2-Me-Leu]E(1c)[Dab][3-(3-Pyridyl)-Ala]-[NHMe]] | 760 | 102 | – |
| CNC(=O)[C@H](Cc1cccnc1)NC(=O)[C@H](CCN)NC(=O)[C@@H]1CCC(=O)NCCCC[C@@H]2NC(=O)CC[C@H](NC(=O)[C@H](CCC(N)=O)NC(=O)[C@H](Cc3c[nH]c4ccccc34)NC(=O)CCNC2=O)C(=O)N[C@@H](Cc2c[nH]c3ccccc23)C(=O)N[C@@H](Cc2ccc3ccccc3c2)C(=O)N[C@@](C)(CC(C)C)C(=O)N1 [Compound 110, K(1c)(6c)^†[3-Aminopropanoyl]WQE(6c)W[2-Nal][2-Me-Leu]E(1c)[Dab][3-(3-Pyridyl)-Ala]-[NHMe]] (K[βAla]WQEW[2Nal][αMeL]E[Dab][3Pal]-NHMe; lactam 1-9, N-5) | 79 | 100 | – |
